# Source: US6472530B1, “Benzo-fused dithiepino[6,5-b]pyridines, and related compositions and methods” (Ortho-McNeil Pharmaceutical, Inc., priority 1999, dated 2002)
# pIC50: −log10 of the molar value.
# Target: T1, calcium channel (Oryctolagus cuniculus, UniProt P15381)
# T1 construct: from tissue; host or cells: rabbit heart membrane preparation
# Experiment: Assay for Inhibition of Nitrendipine Binding (3H-nitrendipine, heart membranes)
# Parameters: species or system rabbit
# Conditions: Table 1, compounds of Formula I; 3H-nitrendipine displacement, rabbit heart membranes; read-out: Nitrendipine Binding Assay IC50
# Description: Assay for Inhibition of Nitrendipine Binding
# Female, New Zealand white rabbits (1-2 kg) are sacrificed by cervical dislocation, and the heart is immediately removed, cleaned and chopped into small pieces. The tissue is homogenized in 5×times volume of 0.05M Hepes buffer, pH 7.4. The homogenate is centrifuged at 4000 g for 10 minutes, and the supernatant is re-centrifuged at 42,000×g for 90 minutes. The resulting membrane pellet is resuspended (0.7 ml/g weight) in 0.05M Hepes, pH 7.4 and stored at […] until used. Each tube of the binding assay contains ^3H-nitrendipine (0.05-0.50 nM), buffer, membranes (0.10 ml), and test compound in a total volume of 1.0 ml. After 90 minutes at 4° C., the bound nitrendipine is separated from the unbound by filtration on Whatman GF/C filters. After rinsing, the filters are dried and counted in a liquid scintillation counter.
# Non-specific binding of ^3H-nitrendipine (that amount bound in the presence of excess unlabelled nitrendipine) is subtracted from the total bound to obtain specifically bound radiolabeled nitrendipine. The amount of specifically bound nitrendipine in the presence of a test compound is compared to that amount bound in the absence of a compound. A percent displacement (or inhibition) can then be calculated.
# T1 sequence (P15381 whole entry, other chains not shown): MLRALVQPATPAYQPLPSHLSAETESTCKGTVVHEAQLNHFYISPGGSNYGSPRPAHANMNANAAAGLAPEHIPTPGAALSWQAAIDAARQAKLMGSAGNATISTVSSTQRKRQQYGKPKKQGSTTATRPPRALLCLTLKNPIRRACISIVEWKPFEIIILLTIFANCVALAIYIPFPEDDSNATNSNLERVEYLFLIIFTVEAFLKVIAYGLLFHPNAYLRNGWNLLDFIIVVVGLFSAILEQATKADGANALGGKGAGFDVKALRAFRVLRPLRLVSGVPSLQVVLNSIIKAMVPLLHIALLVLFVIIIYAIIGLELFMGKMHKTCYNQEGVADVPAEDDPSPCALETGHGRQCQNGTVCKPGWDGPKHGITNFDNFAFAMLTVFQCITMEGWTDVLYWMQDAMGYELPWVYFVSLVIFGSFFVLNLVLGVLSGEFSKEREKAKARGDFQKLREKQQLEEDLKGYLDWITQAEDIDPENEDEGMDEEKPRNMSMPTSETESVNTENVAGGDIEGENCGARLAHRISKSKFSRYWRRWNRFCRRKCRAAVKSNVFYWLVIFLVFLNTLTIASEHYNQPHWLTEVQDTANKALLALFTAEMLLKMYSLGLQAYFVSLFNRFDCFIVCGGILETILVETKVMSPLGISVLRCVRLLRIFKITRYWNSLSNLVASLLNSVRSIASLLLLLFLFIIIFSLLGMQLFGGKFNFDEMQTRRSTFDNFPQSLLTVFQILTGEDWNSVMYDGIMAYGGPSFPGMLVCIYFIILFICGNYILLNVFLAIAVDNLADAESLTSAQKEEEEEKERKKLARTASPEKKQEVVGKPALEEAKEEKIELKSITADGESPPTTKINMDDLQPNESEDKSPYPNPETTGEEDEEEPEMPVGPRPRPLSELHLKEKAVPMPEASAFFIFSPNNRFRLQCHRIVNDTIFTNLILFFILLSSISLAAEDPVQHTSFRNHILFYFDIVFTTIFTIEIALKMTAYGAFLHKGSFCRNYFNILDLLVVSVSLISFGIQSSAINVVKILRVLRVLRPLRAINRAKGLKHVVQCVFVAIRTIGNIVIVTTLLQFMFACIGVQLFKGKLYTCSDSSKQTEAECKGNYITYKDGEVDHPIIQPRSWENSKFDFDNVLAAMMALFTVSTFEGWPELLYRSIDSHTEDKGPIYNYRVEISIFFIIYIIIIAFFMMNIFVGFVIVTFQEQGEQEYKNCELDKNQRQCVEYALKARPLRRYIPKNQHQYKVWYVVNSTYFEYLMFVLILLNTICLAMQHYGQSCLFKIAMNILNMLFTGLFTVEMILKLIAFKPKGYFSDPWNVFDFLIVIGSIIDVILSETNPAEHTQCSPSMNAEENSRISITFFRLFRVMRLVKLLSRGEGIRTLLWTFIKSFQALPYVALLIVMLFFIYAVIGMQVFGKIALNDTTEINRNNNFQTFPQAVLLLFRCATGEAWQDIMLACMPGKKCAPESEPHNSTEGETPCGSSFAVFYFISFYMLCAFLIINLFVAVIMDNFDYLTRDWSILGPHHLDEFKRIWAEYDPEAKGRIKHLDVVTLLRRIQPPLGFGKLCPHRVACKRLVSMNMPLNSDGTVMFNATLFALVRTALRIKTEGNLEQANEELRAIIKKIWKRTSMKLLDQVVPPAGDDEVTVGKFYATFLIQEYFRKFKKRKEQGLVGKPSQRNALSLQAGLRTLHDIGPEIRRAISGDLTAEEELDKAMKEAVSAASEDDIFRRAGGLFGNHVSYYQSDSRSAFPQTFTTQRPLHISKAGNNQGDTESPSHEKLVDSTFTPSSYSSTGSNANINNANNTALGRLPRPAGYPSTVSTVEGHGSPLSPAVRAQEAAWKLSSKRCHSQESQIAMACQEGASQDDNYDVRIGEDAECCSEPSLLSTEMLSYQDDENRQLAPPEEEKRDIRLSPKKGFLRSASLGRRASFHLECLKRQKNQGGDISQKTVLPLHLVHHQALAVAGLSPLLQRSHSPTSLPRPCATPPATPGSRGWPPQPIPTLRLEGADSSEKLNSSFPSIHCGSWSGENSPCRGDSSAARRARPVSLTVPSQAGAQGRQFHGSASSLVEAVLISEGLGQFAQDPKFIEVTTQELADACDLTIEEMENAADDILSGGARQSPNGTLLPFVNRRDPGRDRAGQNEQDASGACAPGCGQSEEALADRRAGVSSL
# T1 sequence (P13806 27-960 partner limits assumed, other chains not shown): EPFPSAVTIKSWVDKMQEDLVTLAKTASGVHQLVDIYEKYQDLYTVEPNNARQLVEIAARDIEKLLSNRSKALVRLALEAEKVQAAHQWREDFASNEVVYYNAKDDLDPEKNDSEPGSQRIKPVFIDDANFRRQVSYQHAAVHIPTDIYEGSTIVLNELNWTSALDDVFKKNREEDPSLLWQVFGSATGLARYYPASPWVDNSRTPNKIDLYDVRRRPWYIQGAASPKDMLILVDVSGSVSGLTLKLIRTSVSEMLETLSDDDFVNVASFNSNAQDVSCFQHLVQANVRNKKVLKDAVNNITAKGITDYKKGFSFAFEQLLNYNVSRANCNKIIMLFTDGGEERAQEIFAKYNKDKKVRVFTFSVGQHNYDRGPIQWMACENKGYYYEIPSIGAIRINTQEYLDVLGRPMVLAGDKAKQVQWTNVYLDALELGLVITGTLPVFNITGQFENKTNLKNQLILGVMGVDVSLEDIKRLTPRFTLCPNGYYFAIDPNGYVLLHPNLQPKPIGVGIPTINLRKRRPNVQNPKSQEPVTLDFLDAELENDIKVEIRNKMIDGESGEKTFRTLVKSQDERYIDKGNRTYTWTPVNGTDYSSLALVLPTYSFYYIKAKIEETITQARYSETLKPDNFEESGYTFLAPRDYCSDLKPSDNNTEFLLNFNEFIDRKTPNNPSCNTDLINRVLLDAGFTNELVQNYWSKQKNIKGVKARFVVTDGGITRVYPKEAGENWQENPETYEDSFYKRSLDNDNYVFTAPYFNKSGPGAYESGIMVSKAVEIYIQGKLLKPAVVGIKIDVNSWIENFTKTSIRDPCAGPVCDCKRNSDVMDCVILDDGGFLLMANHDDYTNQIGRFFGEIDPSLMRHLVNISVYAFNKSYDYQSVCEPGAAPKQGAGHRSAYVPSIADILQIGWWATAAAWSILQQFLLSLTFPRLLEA
# T1 sequence (P13806 961-1106 partner limits assumed, other chains not shown): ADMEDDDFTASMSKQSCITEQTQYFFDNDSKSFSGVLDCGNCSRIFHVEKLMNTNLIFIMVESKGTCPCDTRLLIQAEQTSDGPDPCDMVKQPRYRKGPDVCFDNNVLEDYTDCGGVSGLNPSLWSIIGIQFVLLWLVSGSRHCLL
row,pIC50,Structure (SMILES)
1,7.44,COC(=O)C1=C(C)NC2=C(C1c1ccccc1[N+](=O)[O-])S(=O)(=O)c1ccccc1S(=O)(=O)C2 (centres unmarked) [Compound 10]
2,7.66,"COC(=O)C1=C(C)NC2=C(C1c1cccc(Cl)c1Cl)S(=O)(=O)c1ccccc1S(=O)(=O)C2 (centres unmarked) [Compound 8, 1H-[1,5]Benzodithiepino[3,2-b]pyridine-3-carboxylic acid, 4-(2,3-dichlorophenyl)-4,11-dihydro-2-methyl, methyl ester, 5,5,10,10-tetraoxide]"
3,7.66,"CC1=C(C(=O)OCCN(C)Cc2ccccc2)C(c2cccc(Cl)c2)C2=C(CS(=O)(=O)c3ccccc3S2(=O)=O)N1 (centres unmarked) [Compound 4, 1H-[1,5]Benzodithiepino[3,2-b]pyridine-3-carboxylic acid, 4-(3-chlorophenyl)-4,11-dihydro-2-methyl, 2-[methyl(phenylmethyl)amino]ethyl ester, 5,5,10,10-tetraoxide]"
4,7.62,"CC1=C(C(=O)OCCN(C)Cc2ccccc2)C(c2cccc([N+](=O)[O-])c2)C2=C(CS(=O)(=O)c3ccccc3S2(=O)=O)N1 (centres unmarked) [Compound 16, 1H-[1,5]Benzodithiepino[3,2-b]pyridine-3-carboxylic acid, 4,11-dihydro-2-methyl-4-(3-nitrophenyl), 2-[methyl(phenylmethyl)amino]ethyl ester, 5,5,10,10-tetraoxide]"
5,7.85,"COC(=O)C1=C(C)NC2=C(C1c1cccc(C(F)(F)F)c1F)S(=O)(=O)c1ccccc1S(=O)(=O)C2 (centres unmarked) [Compound 13, 1H-[1,5]Benzodithiepino[3,2-b]pyridine-3-carboxylic acid, 4-[2-fluoro-3-(trifluoromethyl)phenyl]-4,11-dihydro-2-methyl, methyl ester, 5,5,10,10-tetraoxide]"
6,8.00,"COC(=O)C1=C(C)NC2=C(C1c1cccc(Cl)c1)S(=O)(=O)c1ccccc1S(=O)(=O)C2 (centres unmarked) [Compound 9, 1H-[1,5]Benzodithiepino[3,2-b]pyridine-3-carboxylic acid, 4-(3-chlorophenyl)-4,11-dihydro-2-methyl, methyl ester, 5,5,10,10-tetraoxide]"
7,7.64,"CC1=C(C(=O)OCCN(C)Cc2ccccc2)C(c2ccccc2Cl)C2=C(C[S+]([O-])c3ccccc3S2(=O)=O)N1 (centres unmarked) [Compound 18, 1H-[1,5]Benzodithiepino[3,2-b]pyridine-3-carboxylic acid, 4-(2-chlorophenyl)-4,11-dihydro-2-methyl, 2-[methyl(phenylmethyl)amino]ethyl ester, 5,5,10-trioxide]"

# Same assay, conditions: Table 2, compounds of Formula II; 3H-nitrendipine displacement, rabbit heart membranes; read-out: Nitrendipine Binding IC50
row,pIC50,Structure (SMILES)
1,6.74,"CC(=O)OCCOC(=O)C1=C(C)NC2=C(C1c1c(F)cccc1Cl)S(=O)(=O)c1ccccc1S(=O)(=O)C2 (centres unmarked) [Compound 22, 1H-[1,5]benzodithiepino[3,2-b]pyridine-3-carboxylic acid, 4-(2-chloro-6-fluorophenyl)-4,11-dihydro-2-methyl-, 2-(acetyloxy)ethyl ester, 5,5,10,10-tetraoxide]"
2,6.51,CC1=C(C(=O)OCCO)C(c2c(F)cccc2Cl)C2=C(C[S+]([O-])c3ccccc3S2(=O)=O)N1 (centres unmarked) [Compound 20]
3,7.59,CC1=C(C(=O)OCCOC(=O)C(C)C)C(c2c(F)cccc2Cl)C2=C(CS(=O)(=O)c3ccccc3S2(=O)=O)N1 (centres unmarked) [Compound 27]
4,3.93,CC1=C(C(=O)OCCOC(=O)CCCCCCCCCc2ccccc2)C(c2c(F)cccc2Cl)C2=C(CS(=O)(=O)c3ccccc3S2(=O)=O)N1 (centres unmarked) [Compound 36]
